According to ChEMBL document CHEMBL6134831 (Eur J Med Chem, 2025):
Activity calls are given as the source filed them. No cut-off for these calls is given here.

Assays:
Mus musculus [1] = experiment: (§1) Antihyperlipidemic activity against Triton WR-1339 induced hyperlipidemic male Swiss albino mouse model assessed as VLDL level in mouse blood at 13 mg/kg, po pre-treated with compound for 6 days followed by triton WR-1339 induction and measured after 24 hrs (reference value: 97.1 +/- 1 mg/dL); type: functional; settings: time 7 day
Mus musculus [2] = experiment: Antihyperlipidemic activity in Triton WR-1339 induced hyperlipidemic male Swiss albino mouse model assessed as amelioration of islet cell disruption at 13 mg/kg, po pre-treated with compound for 6 days followed by triton WR-1339 induction and measured after 24 hrs by H&E staining based microscopic analysis; type: functional, organism-based; settings: time 7.0 day
Mus musculus [3] = experiment: Antihyperglycemic activity against Triton WR-1339 induced hyperlipidemic male Swiss albino mouse model assessed as blood glucose level at 13 mg/kg, po pre-treated with compound for 6 days followed by triton WR-1339 induction and measured after 24 hrs by glucose meter analysis (reference value: 121.6 +/- 7.8); type: functional; settings: time 7 day
Mus musculus [4] = experiment: Antihyperlipidemic activity against Triton WR-1339 induced hyperlipidemic male Swiss albino mouse model assessed as TG level in mouse blood at 13 mg/kg, po pre-treated with compound for 6 days followed by triton WR-1339 induction and measured after 24 hrs (reference value: 485.3 +/- 4.8 mg/dL); type: functional; settings: time 7 day
Mus musculus [5] = experiment: as §1, with “as total cholesterol” for “as VLDL”, “value: 426.3” for “value: 97.1”, “+/- 2” for “+/- 1”; type: functional; settings: time 7 day
Mus musculus [6] = experiment: Antihyperlipidemic activity against Triton WR-1339 induced hyperlipidemic male Swiss albino mouse model assessed as HDL level in mouse blood at 13 mg/kg, po pre-treated with compound for 6 days followed by triton WR-1339 induction and measured after 24 hrs (reference value: 97.4 +/- 1.2 mg/dL); type: functional; settings: time 7 day
HepaRG [7] = experiment: Cytotoxicity against human HepaRG cells assessed as mortality rate at 250 uM incubated for 30 mins by LDH assay relative to control; type: functional; settings: 0.5 h
Mus musculus [8] = experiment: Antihyperlipidemic activity in Triton WR-1339 induced hyperlipidemic male Swiss albino mouse model assessed as change in carotid artery endothelial cells at 13 mg/kg, po pre-treated with compound for 6 days followed by triton WR-1339 induction and measured after 24 hrs by H&E staining based analysis; type: functional, organism-based; settings: time 7.0 day
Mus musculus [9] = experiment: Antihyperlipidemic activity in Triton WR-1339 induced hyperlipidemic male Swiss albino mouse model assessed as histopathological change in kidney at 13 mg/kg, po pre-treated with compound for 6 days followed by triton WR-1339 induction and measured after 24 hrs by H&E staining based analysis; type: functional, organism-based; settings: time 7.0 day
Mus musculus [10] = experiment: Antihyperlipidemic activity against Triton WR-1339 induced hyperlipidemic male Swiss albino mouse model assessed as LDL level in mouse blood at 13 mg/kg, po pre-treated with compound for 6 days followed by triton WR-1339 induction and measured after 24 hrs (reference value: 231.9 +/- 0.7 mg/dL); type: functional; settings: time 7 day
HepaRG [11] = experiment: Cytotoxicity against human HepaRG cells assessed as mortality rate at 25 uM incubated for 30 mins by LDH assay relative to control; type: functional; settings: 0.5 h

## CC(C)OC(=O)C(C)(C)Oc1ccc(C(=O)c2ccc(Cl)cc2)cc1 [FENOFIBRATE]
Mus musculus [1]
  Activity: 20.6 mg/dL
Mus musculus [2]
  Activity: Active
Mus musculus [3]
  Activity: 75 mg/dL
Mus musculus [4]
  Activity: 103 mg/dL
Mus musculus [5]
  Activity: 135.7 mg/dL
Mus musculus [6]
  Activity: 58.7 mg/dL
HepaRG [7]
  Activity: 18%
Mus musculus [8]
  Activity: Active
Mus musculus [9]
  Activity: Active
Mus musculus [10]
  Activity: 54.4 mg/dL
HepaRG [11]
  Activity: 12%
